Reference: US6218393A, “Anthranilic acid derivatives as multi drug resistance modulators” (priority 1997, dated 2001)

Assays:
[1] = system: AR 1.0 cells; assay: Potentiation of doxorubicin toxicity: proliferation assay (sulphorhodamine B); format: cell-based, mouse
From the text: (a) Selected compounds of formula (I) were examined for their ability to potentiate the toxicity of doxorubicin in AR 1.0 cells.

[2] = system: AR 1.0 cells; assay: Drug accumulation assay: daunorubicin accumulation in AR 1.0 cells; format: cell-based; conditions: Mus musculus, 100% = accumulation with verapamil 100 μM, 1 hr, 37° C.
Procedure, shortened: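 AR 1.0 is the MDR-resistant subline of EMT6 mouse mammary carcinoma, grown in RPMI 1640 with 10% foetal calf serum and 2 mM glutamine at 37 °C, 5% CO2. Cells were seeded 48 h before the daunorubicin accumulation assay.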

[3] = system: AR 1.0 cells; assay: Potentiation index with doxorubicin titration; format: cell-based, mouse; conditions: for Potentiation Index at RMA concentration 300 nM: Table C2, RMA 300 nM; for Potentiation Index at RMA concentration 500 nM: Table C2, RMA 500 nM; for Potentiation Index at RMA concentration 30 nM: Table C2, RMA 30 nM; for Potentiation Index at RMA concentration 100 nM: Table C2, RMA 100 nM; for Potentiation Index at RMA concentration 10 nM: Table C2, RMA 10 nM
Procedure, shortened: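 MDR-resistant mouse EMT6 subline AR 1.0 grown four days with a doxorubicin titration (0.263 nM-17.24 μM) plus a fixed compound concentration; proliferation by sulphorhodamine B. Potentiation index derived from doxorubicin IC50 alone versus with compound.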

[4] = Mus musculus, 96 h, compound alone, four day proliferation, read-out: Compound Toxicity (IC50)
[5] = with fixed doxorubicin 0.34 μm, four days, 5760 min, read-out: Toxicity with Cytotoxic Agent (IC50)

Row | SMILES | IC50 [2] | IC50 [1, 4] | IC50 [1, 5] | Potentiation Index at RMA concentration 300 nM [3] | Potentiation Index at RMA concentration 500 nM [3] | Potentiation Index at RMA concentration 30 nM [3] | Potentiation Index at RMA concentration 100 nM [3] | Potentiation Index at RMA concentration 10 nM [3]
1 | COc1cc2c(cc1OC)CN(CCc1ccc(NC(=O)c3ccccc3NC(=O)c3ccccc3C)cc1)CC2 [compound 9497, 2-(2-Methyl-benzoylamino)-N-{4-[2-(6,7-dimethoxy-3,4-dihydro-1H-isoquinolin-2-yl}-ethyl]-phenyl}-benzamide] | 1600 nM | 9000 nM | 80 nM | 52 | 200 |  |  | 
2 | COc1cc2c(cc1OC)CN(CCc1ccc(NC(=O)c3ccccc3NC(=O)c3cccc(C)c3)cc1)CC2 [compound 9503, 2-(3-Methyl-benzoylamino)-N-{4-[2-(6,7-dimethoxy-3,4-dihydro-1H-isoquinolin-2-yl)-ethyl]-phenyl}-benzamide] | 2000 nM | 3500 nM | 90 nM | 36 | 77 |  |  | 
3 | COc1cc2c(cc1OC)CN(CCc1ccc(NC(=O)c3ccccc3NC(=O)c3ccc(C)cc3)cc1)CC2 [compound 9504, 2-(4-Methyl-benzoylamino)-N-{4-[2-(6,7-dimethoxy-3,4-dihydro-1H-isoquinolin-2-yl)-ethyl]-phenyl}-benzamide] | 260 nM | 5000 nM | 60 nM | 150 | 267 |  | 34 | 
4 | COc1cc2c(cc1OC)CN(CCc1ccc(NC(=O)c3ccccc3NC(=O)c3c(F)cccc3F)cc1)CC2 [compound 9514, 2-(2,6-Difluoro-benzoylamino)-N-{4-[2-(6,7-dimethoxy-3,4-dihydro-1H-isoquinolin-2-yl)-ethyl]-phenyl}-benzamide] | 250 nM | 7000 nM |  | 40 | 120 |  |  | 
5 | COc1cccc(C(=O)Nc2ccccc2C(=O)Nc2ccc(CCN3CCc4cc(OC)c(OC)cc4C3)cc2)c1 [compound 9517, 2-(3-Methoxy-benzoclamino)-N-{4-[2-(6,7-dimethoxy-3,4-dihydro-1H-isoquinolin-2-yl)-ethyl]-phenyl}-benzamide] | 400 nM | 2000 nM | 50 nM | 40 | 120 |  |  | 
6 | COc1ccc(C(=O)Nc2ccccc2C(=O)Nc2ccc(CCN3CCc4cc(OC)c(OC)cc4C3)cc2)cc1 [compound 9518, 2-(4-Methoxy-benzoylamino)-N-{4-[2-(6,7-dimethoxy-3,4-dihydro-1H-isoquinolin-2-yl)-ethyl]-phenyl}-benzamide] | 300 nM | 1500 nM | 19 nM | 120 | 240 |  |  | 

Stronger by IC50 [2], values ahead:

Row | IC50 [2] | SMILES | IC50 [1, 4] | IC50 [1, 5] | Potentiation Index at RMA concentration 300 nM [3] | Potentiation Index at RMA concentration 500 nM [3] | Potentiation Index at RMA concentration 30 nM [3] | Potentiation Index at RMA concentration 100 nM [3] | Potentiation Index at RMA concentration 10 nM [3]
7 | 190 nM | COc1cc2c(cc1OC)CN(CCc1ccc(NC(=O)c3ccccc3NC(=O)c3cccc(F)c3)cc1)CC2 [compound 9500, 2-(3-Fluoro-benzoylamino)-N-{4-[2-(6,7-dimethoxy-3,4-dihydro-1H-isoquinolin-2-yl)-ethyl]-phenyl}-benzamide] | 5000 nM | 9 nM | 300 |  | 5.5 | 97 | 
8 | 120 nM | COc1cc2c(cc1OC)CN(CCc1ccc(NC(=O)c3ccccc3NC(=O)c3ccc(F)cc3)cc1)CC2 [compound 9501, 2-(4-Fluoro-benzoylamino)-N-{4-[2-(6,7-dimethoxy-3,4-dihydro-1H-isoquinolin-2-yl)-ethyl]-phenyl}-benzamide] | 3000 nM | 40 nM | 183 |  | 1.9 | 69 | 
9 | 52 nM | COc1cc2c(cc1OC)CN(CCc1ccc(NC(=O)c3ccccc3NC(=O)c3cnc(C)cn3)cc1)CC2 [compound 9527, 5-Methyl-pyrazine-2-carboxylic acid (2-{4-[2-(6,7-dimethoxy-3,4-dihydro-1H-isoquinolin-2-yl)-ethyl]-phenylcarbamoyl}-phenyl)-amide] | 4500 nM | 7 nM | 103 | 120 | 11 | 50 | 1.5
10 | 35 nM | COc1cc2c(cc1OC)CN(CCc1ccc(NC(=O)c3ccccc3NC(=O)c3cnc4ccccc4n3)cc1)CC2 [compound 9531, Quinoxaline-2-carboxylic. acid (2-{4-[2-(6,7-dimethoxy-3,4-dihydro-1H-isoquinolin-2-yl)-ethyl]-phenylcarbamoyl}-phenyl)-amide] | 1100 nM | 5 nM | 160 |  | 120 | 150 | 30
